US4694069A, “Kibdelosporangium aridum SK&F-AAD-609” (SmithKline Beckman Corporation, priority 1985, dated 1987)
≈ marks a conversion by molar mass, not a printed value. Where two headings read alike, the source gives them in different places. Bridge positions count the residues as written; N and C are the ends. Square brackets hold non-standard residues; d marks the D form. Peptide text beside a SMILES is read from it. * marks the point of attachment. Ileψ(thiazoline)Cys = CC[C@H](C)[C@H](N)C1=N[C@H](C(=O)*)CS1; dOrn = NCCC[C@@H](N)C(=O)O

Tests used:
[1] = tested on: Clostridium difficile; assay: In vitro MIC, standard microtiter assay; format: cell-based
From the text: (§1) In vitro minimum inhibitory concentrations (MIC) of the AAD-609 complex and of Factors A, B, CC2 and D, using standard microtiter assay procedures, against a number of microorganisms are reported in Table A, which follows.

[2] = tested on: Escherichia coli 12140; assay: In vitro MIC, standard microtiter assay; format: cell-based
From the text: as §1

[3] = tested on: S. epidermidis 2265; assay: In vitro MIC, standard microtiter assay; format: cell-based
From the text: as §1

[4] = tested on: S. epidermidis 2479; assay: In vitro MIC, standard microtiter assay; format: cell-based
From the text: as §1

[5] = tested on: S. epidermidis 2683; assay: In vitro MIC, standard microtiter assay; format: cell-based
From the text: as §1

[6] = tested on: S. epidermidis 651 (methicillin resistant strain); assay: In vitro MIC, standard microtiter assay; format: cell-based
From the text: as §1

[7] = tested on: Salmonella gallinarum BC-595; assay: In vitro MIC, standard microtiter assay; format: cell-based
From the text: as §1

[8] = tested on: Staphylococcus aureus HH127; assay: In vitro MIC, standard microtiter assay; format: cell-based
From the text: as §1

[9] = tested on: Streptococcus faecalis 657; assay: In vitro MIC, standard microtiter assay; format: cell-based
From the text: as §1

[10] = tested on: S. aureus 209P; assay: In vitro MIC, standard microtiter assay; format: cell-based, Staphylococcus aureus
From the text: as §1

[11] = tested on: S. aureus 674; assay: In vitro MIC, standard microtiter assay; format: cell-based, Staphylococcus aureus
From the text: as §1

[12] = tested on: S. aureus 675; assay: In vitro MIC, standard microtiter assay; format: cell-based, Staphylococcus aureus
From the text: as §1

[13] = tested on: S. aureus 910 (methicillin resistant strain); assay: In vitro MIC, standard microtiter assay; format: cell-based, Staphylococcus aureus
From the text: as §1

[14] = tested on: S. faecalis 34358; assay: In vitro MIC, standard microtiter assay; format: cell-based, Streptococcus faecalis
From the text: as §1

[15] = tested on: S. aureus 2620 (methicillin resistant strain); assay: MIC; format: cell-based
From the text: as §1

[16] = 30:70 acetonitrile:water
[17] = mouse, in vivo
[18] = tested on: S. aureus 2620 (methicillin resistant strain); assay: Mouse protection test; format: in vivo
From the text: (§2) in mouse protection tests^1
(§3) ^1 Mice dosed 1 and 5 H post infection s.c.; ED50, mg/kg.

[19] = tested on: S. aureus HH127; assay: Mouse protection test; format: in vivo
From the text: as §2, §3

[20] = tested on: S. epidermidis 2479; assay: Mouse protection test; format: in vivo
From the text: as §2, §3

[21] = tested on: S. epidermidis 651 (methicillin resistant strain); assay: Mouse protection test; format: in vivo
From the text: as §2, §3

[22] = tested on: S. faecalis 34358; assay: Mouse protection test; format: in vivo
From the text: as §2, §3

[23] = pKa by potentiometric titration; conditions: 30:70 acetonitrile:water, apparent values
[24] = tested on: pigs; conditions: pig, in vivo; cited from earlier work
[25] = tested on: SK&F-AAD-609; assay: Susceptibility of SK&F-AAD-609 to antibiotics (diffusion method, BBL susceptibility disks); format: cell-based, Kibdelosporangium aridum subsp. largum; conditions: disk 30 μg; 28° C., one week
Experimental: Susceptibility of SK&F-AAD-609 to antibiotics was examined by placing BBL susceptibility disks on nutrient agar plates seeded with SK&F-ADD-609 as an agar overlay. Plates were placed at 4° C. for one hour to permit diffusion of the anitbiotics and, subsequently, incubated at 28° C. Diameters of the zones of inhibition were measured after incubation for one week.
Susceptibility to Antibiotics. […] Chlortetracycline (5 μg) produced 17-18 mm zones of inhibition; tetracycline (5 μg) 9-12 mm zones; rifampin (5 μg) 10-12 mm zones; novobiocin (5 μg) 30-35 mm zones. All zones of inhibition contained at least a few resistant colonies.

[26] = comparators, source not given; cited from earlier work
[27] = Pharmacokinetics in mice
[28] = Table B, methicillin resistant strain
[29] = Table A, methicillin resistant strain
[30] = mice dosed 1 and 5 h post infection s.c., methicillin resistant strain
[31] = mice dosed 1 and 5 h post infection s.c.
[32] = AAD-216A averaged previous results

CCCCCCCCCC(=O)NC1C(Oc2c3cc4cc2Oc2c(Cl)cc(cc2Cl)C(O)C2NC(=O)C(NC(=O)C4NC(=O)C4NC(=O)C(NC(=O)C(NC)c5ccc(O)c(c5)Oc5cc(O)c(Cl)c4c5)C(O)c4ccc(c(Cl)c4)O3)c3ccc(O)c(c3)-c3c(OC4OC(CO)C(O)C(O)C4O)cc(O)cc3C(C(=O)O)NC2=O)OC(CO)C(O)C1O (stereo not shown) [AAD-609 A]
MIC ([1]; Clostridioides difficile, Table A, read-out: MIC): 0.5 µg/mL (≈ 0.282 µM)
MIC ([2]; Escherichia coli, 12140, Table A, read-out: MIC): > 100 µg/mL
MIC ([3]; Staphylococcus epidermidis, 2265, Table A, read-out: MIC): 25 µg/mL (≈ 14.1 µM)
MIC ([4]; Staphylococcus epidermidis, 2479, Table A, read-out: MIC): 12.5 µg/mL (≈ 7.04 µM)
MIC ([4]; Table B): 12.5 µg/mL (≈ 7.04 µM)
MIC ([5]; Staphylococcus epidermidis, 2683, Table A, read-out: MIC): 24 µg/mL (≈ 13.5 µM)
MIC ([6]; Staphylococcus epidermidis, Table A, methicillin resistant strain, read-out: MIC): 50 µg/mL (≈ 28.2 µM)
MIC [6, 28]: 50 µg/mL (≈ 28.2 µM)
MIC ([7]; Salmonella enterica, GALLINARUM, Table A, read-out: MIC): > 100 µg/mL
MIC ([8]; Staphylococcus aureus, HH127, Table A, read-out: MIC): 1.6 µg/mL (≈ 0.901 µM)
MIC ([8]; Table B): 1.6 µg/mL (≈ 0.901 µM)
MIC ([9]; Enterococcus faecalis, 657, Table A, read-out: MIC): 0.4 µg/mL (≈ 0.225 µM)
MIC ([10]; Staphylococcus aureus, 209P, Table A, read-out: MIC): 0.4 µg/mL (≈ 0.225 µM)
MIC ([11]; Staphylococcus aureus, 674, Table A, read-out: MIC): 0.8 µg/mL (≈ 0.451 µM)
MIC ([12]; Staphylococcus aureus, 675, Table A, read-out: MIC): 6.3 µg/mL (≈ 3.55 µM)
MIC ([13]; Staphylococcus aureus, Table A, methicillin resistant strain, read-out: MIC): 1.6 µg/mL (≈ 0.901 µM)
MIC ([14]; Enterococcus faecalis, 34358, Table A, read-out: MIC): 0.4 µg/mL (≈ 0.225 µM)
MIC ([14]; Table B): 0.4 µg/mL (≈ 0.225 µM)
MIC ([15]; Staphylococcus aureus, Table B, methicillin resistant strain, read-out: MIC): 2 µg/mL (≈ 1.13 µM)
pKa (A) carboxyl on aglycone [16]: 3.4
pKa (C) amino group on aglycone [16]: 7.1
Elimination half-life [17]: 1.93 h
Maximum serum concentration [17]: 90 µg/mL

CNC1C(=O)NC2C(=O)NC(C(=O)NC3C(=O)NC4C(=O)NC(C(=O)NC(C(=O)O)c5cc(O)cc(OC6OC(CO)C(O)C(O)C6O)c5-c5cc4ccc5O)C(O)c4cc(Cl)c(c(Cl)c4)Oc4cc3cc(c4OC3OC(CO)C(O)C(O)C3NC(=O)CCCCCCCCC(C)C)Oc3ccc(cc3Cl)C2O)c2cc(cc(O)c2Cl)Oc2cc1ccc2O (stereo not shown) [AAD-609 C]
MIC ([1]; Table A): 1 µg/mL (≈ 0.554 µM)
MIC ([2]; Table A): > 100 µg/mL
MIC ([3]; Table A): 25 µg/mL (≈ 13.9 µM)
MIC ([4]; Table A): 12.5 µg/mL (≈ 6.93 µM)
MIC ([4]; Table B): 12.5 µg/mL (≈ 6.93 µM)
MIC ([5]; Table A): 25 µg/mL (≈ 13.9 µM)
MIC [6, 29]: 25 µg/mL (≈ 13.9 µM)
MIC [6, 28]: 25 µg/mL (≈ 13.9 µM)
MIC ([7]; Table A): > 100 µg/mL
MIC ([8]; Table A): 1.6 µg/mL (≈ 0.887 µM)
MIC ([8]; Table B): 1.6 µg/mL (≈ 0.887 µM)
MIC ([9]; Table A): 0.2 µg/mL (≈ 0.111 µM)
MIC ([10]; Table A): 0.8 µg/mL (≈ 0.444 µM)
MIC ([11]; Table A): 1.6 µg/mL (≈ 0.887 µM)
MIC ([12]; Table A): 6.3 µg/mL (≈ 3.49 µM)
MIC [13, 29]: 1.6 µg/mL (≈ 0.887 µM)
MIC ([14]; Table A): 0.2 µg/mL (≈ 0.111 µM)
MIC ([14]; Table B): 0.2 µg/mL (≈ 0.111 µM)
MIC [15, 28]: 4 µg/mL (≈ 2.22 µM)
ED50 [18, 30]: 8.4 mg/kg
ED50 [19, 31]: 8.5 mg/kg
ED50 [20, 31]: 22 mg/kg
ED50 [21, 30]: 50 mg/kg
ED50 [22, 31]: 50 mg/kg
pKa (A) carboxyl on aglycone [23, 32]: 3.6
pKa (C) amino group on aglycone [23, 32]: 7.2
pKa (D) phenolic OH ([23]; first phenolic OH, AAD-216A averaged previous results): 8.4
pKa (D) phenolic OH ([23]; fourth phenolic OH): 11.6
pKa (D) phenolic OH ([23]; second phenolic OH, AAD-216A averaged previous results): 9.9
pKa (D) phenolic OH ([23]; third phenolic OH, AAD-216A averaged previous results): 10.6

CC[C@H](C)[C@H](N)C1=N[C@H](C(=O)N[C@@H](CC(C)C)C(=O)N[C@H](CCC(=O)O)C(=O)N[C@H](C(=O)N[C@H]2CCCCNC(=O)[C@H](CC(N)=O)NC(=O)[C@@H](CC(=O)O)NC(=O)[C@H](Cc3cnc[nH]3)NC(=O)[C@@H](Cc3ccccc3)NC(=O)[C@H]([C@@H](C)CC)NC(=O)[C@@H](CCCN)NC2=O)[C@@H](C)CC)CS1 [Bacitracin, bacitracin] ({Ileψ(thiazoline)Cys}-L[dE]IK[dOrn]I[dF]H[dD]N; lactam 4-C)
Growth promotion in pigs (in words) [24]: known growth promoter in pigs

CN[C@H](CC(C)C)C(=O)N[C@H]1C(=O)N[C@@H](CC(N)=O)C(=O)N[C@H]2C(=O)N[C@H]3C(=O)N[C@H](C(=O)N[C@H](C(=O)O)c4cc(O)cc(O)c4-c4cc3ccc4O)[C@H](O)c3ccc(c(Cl)c3)Oc3cc2cc(c3O[C@@H]2O[C@H](CO)[C@@H](O)[C@H](O)[C@H]2O[C@H]2C[C@](C)(N)[C@H](O)[C@H](C)O2)Oc2ccc(cc2Cl)[C@H]1O [Vancomycin, vancomycin]
Susceptibility (diffusion method) [25]: resistant
MIC ([1]; Clostridioides difficile): 2 µg/mL (≈ 1.38 µM)
MIC ([2]; Escherichia coli, 12140): > 100 µg/mL
MIC ([3]; Staphylococcus epidermidis, 2265): 1.6 µg/mL (≈ 1.1 µM)
MIC ([4]; Staphylococcus epidermidis, 2479): 3.1 µg/mL (≈ 2.14 µM)
MIC ([4]; Table B): 3.1 µg/mL (≈ 2.14 µM)
MIC ([5]; Staphylococcus epidermidis, 2683): 3.1 µg/mL (≈ 2.14 µM)
MIC ([6]; Staphylococcus epidermidis): 3.1 µg/mL (≈ 2.14 µM)
MIC [6, 28]: 3.1 µg/mL (≈ 2.14 µM)
MIC ([7]; Salmonella enterica, GALLINARUM): 100 µg/mL (≈ 69 µM)
MIC ([8]; Staphylococcus aureus, HH127): 1.6 µg/mL (≈ 1.1 µM)
MIC ([8]; Table B): 1.6 µg/mL (≈ 1.1 µM)
MIC ([9]; Enterococcus faecalis, 657): 3.1 µg/mL (≈ 2.14 µM)
MIC ([10]; Staphylococcus aureus, 209P): 0.8 µg/mL (≈ 0.552 µM)
MIC ([11]; Staphylococcus aureus, 674): 1.6 µg/mL (≈ 1.1 µM)
MIC ([12]; Staphylococcus aureus, 675): 3.1 µg/mL (≈ 2.14 µM)
MIC ([13]; Staphylococcus aureus): 1.6 µg/mL (≈ 1.1 µM)
MIC ([14]; Enterococcus faecalis, 34358): 3.1 µg/mL (≈ 2.14 µM)
MIC ([14]; Table B): 3.1 µg/mL (≈ 2.14 µM)
MIC ([15]; Staphylococcus aureus): 2 µg/mL (≈ 1.38 µM)
ED50 ([18]; Staphylococcus aureus, sc): 6.7 mg/kg
ED50 ([19]; Staphylococcus aureus, HH127, sc): 1.4 mg/kg
ED50 ([20]; Staphylococcus epidermidis, 2479, sc): 4.1 mg/kg
ED50 ([21]; Staphylococcus epidermidis, sc): 4.8 mg/kg
ED50 ([22]; Enterococcus faecalis, 34358, sc): 12.5 mg/kg
Isoelectric point [26]: 8.2
Elimination half-life ([27]; mice): 0.333 h
Cmax ([27]; mouse, serum): 30000 ng/mL
